Assay results as given in PMC11070402, “New antiproliferative 3-substituted oxindoles inhibiting EGFR/VEGFR-2 and tubulin polymerization” (Molecular Diversity, 2023).
Where “and” joins values, the source holds several entries; their conditions need not be identical. Equal entries are not always repeated. Where two headings read alike, the source gives them in different places.

Columns and labels:
K-562 = assay: NCI one-dose assay, K-562; assay type: cell-based; conditions: Homo sapiens, K562; K-562; 10 µM single dose, 48 h incubation; read-out: cell growth inhibition % (GI %)
Experimental: (§1) All novel scaffolds 6a–j were carefully selected by the National Cancer Institute (NCI), Bethesda, USA, to elucidate their cytotoxic activity versus 60 human cancer cell lines at 10 µM as a single-dose concentration after a 48 h incubation period.
(§2) National Cancer Institution selected all the synthesized 6a–j (NCI), Bethesda, USA, for in vitro one-dose antitumor assay. The methodology protocol for the NCI anticancer screening was reported in detail elsewhere (http://www.dtp.nci.nih.gov). The anticancer assay was performed in full NCI 60 cell lines extracted from nine tumor cell lines, including leukemia, melanoma, lung, colon, CNS, ovarian, renal, prostate, and breast cancer cell lines.

[1] = system: HOP-92 (non-small cell lung cancer cell line); assay: NCI one-dose assay, HOP-92; assay type: cell-based; conditions: Homo sapiens; HOP-92 (Non-Small Cell Lung Cancer), 10 uM single dose; read-out: Growth inhibition %
Experimental: as §1, §2

SK-MEL-5 = assay: NCI one-dose assay, SK-MEL-5; assay type: cell-based; conditions: Homo sapiens; SK-MEL-5; 10 µM single dose, 48 h incubation; read-out: cell growth inhibition % (GI %)
Experimental: as §1, §2

[2] = system: MCF-7 (human breast cancer); assay: Cytotoxicity versus MCF-7 cell line (MTT assay); conditions: MCF7, read-out: MCF-7 (IC50 ± SD, uM)
Experimental: IC50 values were recorded using the Boltzman sigmoidal concentration–response curve equation using the nonlinear regression fitting models by GraphPad, Prism version 5 (GraphPad Software Inc., La Jolla, CA). MTT assay for MCF-7 cell lines. Cell line cells were obtained from American Type Culture Collection. Cells were cultured using DMEM media (Invitrogen/Life Technologies) supplemented with 10% FBS (Hyclone), 10 ug/ml of insulin (Sigma), and 1% penicillin–streptomycin. All the other chemicals and reagents were purchased from Sigma or Invitrogen. Cells were seeded in plates (cells density 1.2–1.8 × 10,000 cells/well) in a volume of 100 μl full-growth medium + 100 μl of the tested scaffold per well in a 96-well plate for 24 h before the application of the MTT assay protocol as reported, supplementary information.

MCF-7 = assay: NCI one-dose assay, MCF-7; assay type: cell-based, human; conditions: MCF-7, 10 µM single dose, 48 h incubation
Experimental: as §1, §2

SR = assay: NCI one-dose assay, SR; assay type: cell-based; conditions: Homo sapiens; SR; 10 µM single dose, 48 h incubation; read-out: cell growth inhibition % (GI %)
Experimental: as §1, §2

LOX IMVI = assay: NCI one-dose assay, LOX IMVI; assay type: cell-based; conditions: Homo sapiens; LOX IMVI; 10 µM single dose, 48 h incubation; read-out: cell growth inhibition % (GI %)
Experimental: as §1, §2

T-47D = assay: NCI one-dose assay, T-47D; assay type: cell-based; conditions: Homo sapiens, T47D; T-47D; 10 µM single dose, 48 h incubation; read-out: cell growth inhibition % (GI %)
Experimental: as §1, §2

MOLT-4 = assay: NCI one-dose assay, MOLT-4; assay type: cell-based; conditions: Homo sapiens; MOLT-4; 10 µM single dose, 48 h incubation; read-out: cell growth inhibition % (GI %)
Experimental: as §1, §2

NCI-H23 = assay: NCI one-dose assay, NCI-H23; assay type: cell-based; conditions: Homo sapiens; NCI-H23; 10 µM single dose, 48 h incubation; read-out: cell growth inhibition % (GI %)
Experimental: as §1, §2

UO-31 = assay: NCI one-dose assay, UO-31; assay type: cell-based; conditions: Homo sapiens; UO-31; 10 µM single dose, 48 h incubation; read-out: cell growth inhibition % (GI %)
Experimental: as §1, §2

[3] = system: NCI/ADR-RES (ovarian cancer cell line); assay: NCI one-dose assay, NCI/ADR-RES; assay type: cell-based; conditions: Homo sapiens; NCI/ADR-RES; 10 µM single dose, 48 h incubation; read-out: cell growth inhibition % (GI %)
Experimental: as §1, §2

A549/ATCC = assay: NCI one-dose assay, A549/ATCC; assay type: cell-based; conditions: Homo sapiens, 10 µM single dose, 48 h incubation, read-out: cell growth inhibition % (GI %)
Experimental: as §1, §2

[4] = system: SNB-75 cells (CNS cancer cell line); assay: NCI one-dose assay, SNB-75; assay type: cell-based; conditions: Homo sapiens; SNB-75 (CNS Cancer), 10 uM single dose; read-out: Growth inhibition %
Experimental: as §1, §2

[5] = system: 60 human cancer cell lines; assay: NCI one-dose assay against sixty NCI cancer cell lines; assay type: cell-based
Experimental: as §1, §2

O=C1Nc2cc(Cl)ccc2C1=Cc1ccc(OCC(=O)c2ccc(Br)cc2)cc1 [Compound 6g, 6-Chloro-3-{4-[2-(4-bromophenyl)-2-oxoethoxy]benzylidene}indolin-2-one]
inhibition at 10 µM (K-562): 58.3%
inhibition at 10 µM [1]: 30.8%
inhibition at 10 µM (SK-MEL-5): 61.2%
IC50 [2]: 25.4 ± 1.23 µM
inhibition at 10 µM (MCF-7; Homo sapiens, MCF7, 48 h, read-out: cell growth inhibition % (GI %)): 70.3%
cell growth inhibition % (GI %) (MCF-7): 70.03% and 71.12%
inhibition at 10 µM (SR): 59.7%
inhibition at 10 µM (LOX IMVI): 45.8%
inhibition at 10 µM (T-47D): 55.2%
inhibition at 10 µM (MOLT-4): 61.6%
inhibition at 10 µM (NCI-H23): 46.8%
inhibition at 10 µM (UO-31): 59.4%
inhibition at 10 µM [3]: 52.2%
inhibition at 10 µM (A549/ATCC): 49.9%
inhibition at 10 µM [4]: 31.1%
inhibition at 10 µM ([5]; 786-0 (Renal Cancer), 10 uM single dose, read-out: Growth inhibition %): 15.6%
inhibition at 10 µM ([5]; ACHN (Renal Cancer), 10 uM single dose, read-out: Growth inhibition %): 31.2%
inhibition at 10 µM ([5]; BT-549 (Breast Cancer), 10 uM single dose, read-out: Growth inhibition %): 44.3%
inhibition at 10 µM ([5]; CAKI-1 (Renal Cancer), 10 uM single dose, read-out: Growth inhibition %): 47.6%
inhibition at 10 µM ([5]; CCRF-CEM (Leukemia), 10 uM single dose, read-out: Growth inhibition %): 34.3%
inhibition at 10 µM ([5]; COLO 205 (Colon Cancer), 10 uM single dose, read-out: Growth inhibition %): 44.7%
inhibition at 10 µM ([5]; DU-145 (Prostate Cancer), 10 uM single dose, read-out: Growth inhibition %): 12.4%
inhibition at 10 µM ([5]; EKVX (Non-Small Cell Lung Cancer), 10 uM single dose, read-out: Growth inhibition %): 43.8%
inhibition at 10 µM ([5]; HCC-2998 (Colon Cancer), 10 uM single dose, read-out: Growth inhibition %): 17.5%
inhibition at 10 µM ([5]; HCT-15 (Colon Cancer), 10 uM single dose, read-out: Growth inhibition %): 46.9%
inhibition at 10 µM ([5]; HCT-116 (Colon Cancer), 10 uM single dose, read-out: Growth inhibition %): 42.1%
inhibition at 10 µM ([5]; HL-60(TB) (Leukemia), 10 uM single dose, read-out: Growth inhibition %): 53.8%
inhibition at 10 µM ([5]; HS 578T (Breast Cancer), 10 uM single dose, read-out: Growth inhibition %): 22.4%
inhibition at 10 µM ([5]; HT-29, HT29 (Colon Cancer), 10 uM single dose, read-out: Growth inhibition %): 16.1%
inhibition at 10 µM ([5]; IGROV-1, IGROV1 (Ovarian Cancer), 10 uM single dose, read-out: Growth inhibition %): 34.6%
inhibition at 10 µM ([5]; KM12 (Colon Cancer), 10 uM single dose, read-out: Growth inhibition %): 28.7%
inhibition at 10 µM ([5]; M14 (Melanoma), 10 uM single dose, read-out: Growth inhibition %): 31.1%
inhibition at 10 µM ([5]; MALME-3M (Melanoma), 10 uM single dose, read-out: Growth inhibition %): 12.9%
inhibition at 10 µM ([5]; MDA-MB-231, read-out: Growth inhibition %): 23.4%
inhibition at 10 µM ([5]; MDA-MB-435 (Melanoma), 10 uM single dose, read-out: Growth inhibition %): 24.8%
inhibition at 10 µM ([5]; MDA-MB-468 (Breast Cancer), 10 uM single dose, read-out: Growth inhibition %): 42.3%
inhibition at 10 µM ([5]; NCI-H226 (Non-Small Cell Lung Cancer), 10 uM single dose, read-out: Growth inhibition %): 37.9%
inhibition at 10 µM ([5]; NCI-H322M (Non-Small Cell Lung Cancer), 10 uM single dose, read-out: Growth inhibition %): 18.1%
inhibition at 10 µM ([5]; NCI-H460 (Non-Small Cell Lung Cancer), 10 uM single dose, read-out: Growth inhibition %): 41%
inhibition at 10 µM ([5]; NCI-H522 (Non-Small Cell Lung Cancer), 10 uM single dose, read-out: Growth inhibition %): 49.4%
inhibition at 10 µM ([5]; OVCAR-3 (Ovarian Cancer), 10 uM single dose, read-out: Growth inhibition %): 15.7%
inhibition at 10 µM ([5]; OVCAR-4 (Ovarian Cancer), 10 uM single dose, read-out: Growth inhibition %): 44.5%
inhibition at 10 µM ([5]; OVCAR-5 (Ovarian Cancer), 10 uM single dose, read-out: Growth inhibition %): 13.9%
inhibition at 10 µM ([5]; OVCAR-8 (Ovarian Cancer), 10 uM single dose, read-out: Growth inhibition %): 30.7%
inhibition at 10 µM ([5]; PC-3 (Prostate Cancer), 10 uM single dose, read-out: Growth inhibition %): 51.4%
inhibition at 10 µM ([5]; RPMI-8226 (Leukemia), 10 uM single dose, read-out: Growth inhibition %): 43.6%
inhibition at 10 µM ([5]; RXF 393 (Renal Cancer), 10 uM single dose, read-out: Growth inhibition %): 44.8%
inhibition at 10 µM ([5]; SF-268 (CNS Cancer), 10 uM single dose, read-out: Growth inhibition %): 22%
inhibition at 10 µM ([5]; SF-295 (CNS Cancer), 10 uM single dose, read-out: Growth inhibition %): 45.1%
inhibition at 10 µM ([5]; SF-539 (CNS Cancer), 10 uM single dose, read-out: Growth inhibition %): 30.6%
inhibition at 10 µM ([5]; SK-MEL-2 (Melanoma), 10 uM single dose, read-out: Growth inhibition %): 29.8%
inhibition at 10 µM ([5]; SK-MEL-28 (Melanoma), 10 uM single dose, read-out: Growth inhibition %): 19.4%
inhibition at 10 µM ([5]; SN12C (Renal Cancer), 10 uM single dose, read-out: Growth inhibition %): 45.2%
inhibition at 10 µM ([5]; SNB-19 (CNS Cancer), 10 uM single dose, read-out: Growth inhibition %): 18.5%
inhibition at 10 µM ([5]; SW-620 (Colon Cancer), 10 uM single dose, read-out: Growth inhibition %): 14.1%
inhibition at 10 µM ([5]; U-251, U251 (CNS Cancer), 10 uM single dose, read-out: Growth inhibition %): 25.8%
inhibition at 10 µM ([5]; UACC-62 (Melanoma), 10 uM single dose, read-out: Growth inhibition %): 42%
inhibition at 10 µM ([5]; UACC-257 (Melanoma), 10 uM single dose, read-out: Growth inhibition %): 27.1%
